One assay concerns the target T1, D3 receptors (Chlorocebus aethiops, UniProt P52703).
T1 construct: expressed in transfected cells; host or cells: COS cells
In words: D3 receptor binding ([3H]YM 09151-2 displacement, COS cell pellets with recombinant receptor). Details: species or system African Green monkey. Particulars: 0.5 nM 3H-YM 09151-2; recombinant receptor in COS cells; nonspecific with 1 mM spiperone; text also says rat striatal homogenates. As for the experimental part:
(§1) Pellets of COS cells containing recombinantly produced D2 or D3 receptors from African Green monkey were used for the assays. The sample is homogenized in 100 volumes (w/vol) of 0.05M Tris HCl buffer at 4° C. and pH 7.4. The sample is then centrifuged at 30,000×g and resuspended and rehomogenized. The sample is then centrifuged as described and the final tissue sample is frozen until use. The tissue is resuspended 1:20 (wt/vol) in 0.05M Tris HCl buffer containing 100 mM NaCl.
(§2) Incubations are carried out at 48° C. and contain 0.4 ml of tissue sample, 0.5 nM ^3 H-YM 09151-2 and the compound of interest in a total incubation of 1.0 ml. Nonspecific binding is defined as that binding found in the presence of […] spiperone; without further additions, nonspecific binding is less than 20% of total binding. The binding characteristics of representative compounds of the invention for D2 and D3 receptor subtypes are shown in Table 2 for rat striatal homogenates.

In a further assay the target is T2, D2 receptors (Chlorocebus aethiops, UniProt P52702).
T2 construct: 3H-YM 09151-2 displacement
Briefly: D2 receptor binding ([3H]YM 09151-2 displacement, COS cell pellets with recombinant receptor). More on the design: species or system African Green monkey. Particulars: 0.5 nM 3H-YM 09151-2; recombinant receptor in COS cells; nonspecific with 1 mM spiperone; text also says rat striatal homogenates. As to the method:
as §1, §2

The results in this text go back to patent US5892041A, “Fused indolecarboxamides: dopamine receptor subtype specific ligands” (Neurogen Corporation, priority 1996, dated 1999).

Broadly, the Ki is the dissociation constant of the complex between target and ligand, obtained from inhibition or displacement.

Counter-ions that a name gives are not always drawn.

T1 sequence (P52703 whole entry): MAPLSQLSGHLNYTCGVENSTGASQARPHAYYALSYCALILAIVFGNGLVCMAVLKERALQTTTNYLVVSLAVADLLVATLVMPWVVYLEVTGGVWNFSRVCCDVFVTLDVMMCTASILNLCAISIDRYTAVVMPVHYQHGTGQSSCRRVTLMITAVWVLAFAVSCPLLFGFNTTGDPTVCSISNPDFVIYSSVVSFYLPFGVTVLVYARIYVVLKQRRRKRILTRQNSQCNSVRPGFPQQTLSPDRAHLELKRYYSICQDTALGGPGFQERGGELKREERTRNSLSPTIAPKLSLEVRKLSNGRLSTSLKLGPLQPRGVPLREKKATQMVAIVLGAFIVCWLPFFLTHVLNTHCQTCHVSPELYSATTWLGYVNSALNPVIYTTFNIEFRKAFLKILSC
T2 sequence (P52702 whole entry): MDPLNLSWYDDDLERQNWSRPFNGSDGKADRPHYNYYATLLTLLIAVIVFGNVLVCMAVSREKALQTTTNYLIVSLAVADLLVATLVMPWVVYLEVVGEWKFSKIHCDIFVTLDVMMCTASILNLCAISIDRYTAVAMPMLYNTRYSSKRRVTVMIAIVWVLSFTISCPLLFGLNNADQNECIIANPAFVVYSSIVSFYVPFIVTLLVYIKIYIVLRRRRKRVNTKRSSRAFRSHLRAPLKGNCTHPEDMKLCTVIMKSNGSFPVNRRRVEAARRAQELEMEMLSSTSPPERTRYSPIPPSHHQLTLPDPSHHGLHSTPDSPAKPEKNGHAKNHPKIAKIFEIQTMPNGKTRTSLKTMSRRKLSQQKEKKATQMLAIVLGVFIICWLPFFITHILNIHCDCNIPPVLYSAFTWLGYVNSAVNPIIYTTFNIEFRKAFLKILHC

Turning to `O=C(NCCCCN1CCN(c2cccc(Cl)c2Cl)CC1)c1ccc2[nH]c3c(c2c1)CCCC3` [Compound 1, N-(1-{4-[4-(2,3-dichlorophenyl)piperazine-1-yl]}butyl)-1,2,3 4-tetrahydrocarbazole-6-carboxamide hydrochloride], the Ki at D3 receptors was determined as 0.5 nM; at D2 receptors, 250 nM.
In the same order, the values of `Cn1c2ccccc2c2cc(C(=O)NCCCCN3CCN(c4cccc(Cl)c4Cl)CC3)ccc21` [Compound 3, N-(1-{4-[4-(2,3-dichlorophenyl)piperazine-1-yl]}butyl)-9-methylcarbazole-3-carboxamide hydrochloride] are 2 nM and 540 nM.
As to `O=C(NCCCCN1CCN(c2cccc(Cl)c2Cl)CC1)c1ccc2c(c1)[nH]c1ccccc12` [Compound 4, N-(1-{4-[4-(2,3-dichlorophenyl)piperazine-1-yl]}butyl)-9H-carbazole-2-carboxamide hydrochloride], the Ki on D3 receptors turned out to be 1 nM; on D2 receptors it was 750 nM.
